Laboratory results: US6391890B1, “Heterocyclic compounds” (Novo Nordisk A/S, priority 1997, dated 2002)
Structures can show the parent of a compound that is named as a salt.

Key:
[1] = tested on: histamine induced paw oedema; experiment: Histamine induced paw oedema (rat, water plethysmography); format: in vivo; details: 1.0 mg/kg intraperitoneally, male Sprague-Dawley rats, paw swelling 20 minutes after histamine
Experimental: I. Histamine Induced Paw Oedema The rat histamine paw oedema test was performed essentially as described by Amann et al. (Europ. J. Pharmacol. 279, 227-231, 1995). In brief 250-300 g male Sprague-Dawley rats were anaesthetized with pentobarbital sodium, and placed on a 32 degree heated table. Ten minutes later histamine (50 micoliter, 3 mg/ml) was injected in the right hind paw and 20 minutes hereafter the paw swelling was determined by water plethysmography (Ugo Basile). Test compounds were administered intraperitoneally at 15 minutes before the anaesthetics.

[2] = tested on: histamine induced blood glucose rise; experiment: Histamine induced hyperglycemia in mice; format: in vivo; details: 1.0 mg/kg ip 30 min before histamine icv, male NMRI mice, blood glucose at 40 min
Experimental: II. Histamine Induced Hyperglycemia in Mice
Conscious unfasted 25 g male NMRI mice are administered histamine chloride (90 nmol) icv according to the method of Nishibori et al. (J. Pharmacol. Exp. Therap. 241, 582-286,1987). Blood glucose is determined at time 0 and 40 min after the histamine injection. Test compounds are administered at 1.0 mg/kg ip 30 min before the histamine injection, and % inhibition refers to the capacity of the compounds to inhibit the histamine induced blood glucose rise.

Structure (SMILES)	melting point	Inhibition of histamine induced paw oedema, % inhibition [1]	Inhibition of histamine induced hyperglycemia, % inhibition [2]
Cl.O=C(O)CN1CCC(=C2c3ccccc3CSc3ccccc32)CC1	170 to 175 °C	–	–
Cl.O=C(O)CCN1CCN(C2c3ccccc3CCc3ccccc32)CC1 [Example 2, 3-(4-(10,11-Dihydro-5H-dibenzo[a,d]cyclohepten-5-yl)piperazin-1-yl)propionic acid hydrochloride]	–	44%	–
Cl.O=C(O)CCN1CCC(=C2c3ccccc3CCc3ccccc32)CC1 [Example 10, 3-(4-(10,11-Dihydro-5H-dibenzo[a,d]cyclohepten-5-ylidene)-1-piperidine)propionic acid hydrochloride]	–	33%	69%

Continued, in another order:

melting point	Structure (SMILES)	Inhibition of histamine induced paw oedema, % inhibition [1]	Inhibition of histamine induced hyperglycemia, % inhibition [2]
176 to 186 °C (dec.)	Cl.O=C(O)CCN1CCC(=C2c3ccccc3CSc3ccccc32)CC1	–	–
245 to 255 °C (dec.)	O=C(O)C1CCCN(CCCN2CCC(=C3c4ccccc4CSc4ccccc43)CC2)C1 (stereo not shown) (as salt: hydrochloride)	–	–
127 to 130 °C	O=C(O)[C@@H]1CCCN(CCN2CCC(=C3c4ccccc4CSc4ccccc43)CC2)C1 (as salt: hydrochloride)	–	–
